# From patent US6737383B1, “Herbicidal oxadiazolidines” (priority 1999, dated 2004)
# Experiments:
# morningglory = assay: Test B pre/postemergence morningglory; format: in vivo, Ipomoea hederacea; details: for Morningglory plant response rating (0 to 10 scale): 0 is no effect
# In short: (§1)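 Herbicidal effect was estimated by eye on a ten-point control scale after plants spent twelve to sixteen days in a greenhouse following soil or foliar treatment. Foliar sprays targeted plants at one to four leaves; all doses were formulated in a non-phytotoxic solvent with surfactant.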
# soybean = assay: Test B pre/postemergence soybean; format: in vivo, Glycine max; details: for Soybean plant response rating (0 to 10 scale): 0 is no effect
# In short: as §1
# corn = assay: Test B pre/postemergence corn; format: in vivo, Zea mays; details: for Corn plant response rating (0 to 10 scale): 0 is no effect
# In short: as §1
# crabgrass = assay: Test B pre/postemergence crabgrass; format: in vivo, Digitaria sanguinalis; details: for Crabgrass plant response rating (0 to 10 scale): 0 is no effect
# In short: as §1
# surinam grass = assay: Test B pre/postemergence surinam grass; format: in vivo, Brachiaria decumbens; details: for B. signalgrass plant response rating (0 to 10 scale): 0 is no effect
# In short: as §1
# purple nutsedge = assay: Test B pre/postemergence purple nutsedge; format: in vivo, Cyperus rotundus; details: for Nutsedge plant response rating (0 to 10 scale): 0 is no effect
# In short: as §1
# cocklebur = assay: Test B pre/postemergence cocklebur; format: in vivo, Xanthium strumarium; details: for Cocklebur plant response rating (0 to 10 scale): 0 is no effect
# In short: as §1
# blackgrass = assay: Test B pre/postemergence blackgrass; format: in vivo, Alopecurus myosuroides; details: for Blackgrass plant response rating (0 to 10 scale): 0 is no effect
# In short: as §1
# rape = assay: Test B pre/postemergence rape; format: in vivo, Brassica napus; details: for Rape plant response rating (0 to 10 scale): 0 is no effect
# In short: as §1
# giant foxtail = assay: Test B pre/postemergence giant foxtail; format: in vivo, Setaria faberii; details: for Giant foxtail plant response rating (0 to 10 scale): 0 is no effect
# In short: as §1
# wild oat = assay: Test B pre/postemergence wild oat; format: in vivo, Avena fatua; details: for Wild oats plant response rating (0 to 10 scale): Rate 125 g/ha, 0 is no effect
# In short: as §1
# pigweed = assay: Test B pre/postemergence pigweed; format: in vivo, Amaranthus retroflexus; details: for Redroot pigweed plant response rating (0 to 10 scale): 0 is no effect
# In short: as §1
# velvetleaf = assay: Test B pre/postemergence velvetleaf; format: in vivo, Abutilon theophrasti; details: for Velvetleaf plant response rating (0 to 10 scale): Rate 125 g/ha, 0 is no effect
# In short: as §1
# sugar beet = assay: Test B pre/postemergence sugar beet; format: in vivo, Beta vulgaris; details: for Sugarbeets plant response rating (0 to 10 scale): 0 is no effect
# In short: as §1
# [1] = Postemergence, Rate 125 g/ha, scale of 0 to 10 where 0 is no effect and 10 is complete control
# [2] = Preemergence, Rate 62 g/ha, scale of 0 to 10 where 0 is no effect and 10 is complete control
# [3] = Preemergence, Rate 125 g/ha, 10 is complete control
# [4] = Preemergence, Rate 250 g/ha, scale 0 to 10, 0 is no effect, 10 is complete control
# [5] = Preemergence, Rate 500 g/ha, scale 0 to 10 (0 no effect, 10 complete control)
# [6] = Rate 62 g/ha, Postemergence, scale of 0 to 10 where 0 is no effect and 10 is complete control
# [7] = Rate 250 g/ha, Postemergence, scale 0 to 10, 0 is no effect, 10 is complete control
# [8] = Rate 500 g/ha, Postemergence, scale 0 to 10
# [9] = Rate 500 g/ha, Postemergence, scale 0 to 10, 0 no effect, 10 complete control
# [10] = Preemergence, 10 is complete control
smiles,measurement,setting,value
CC1CCCCC1n1c(=O)on(C(=O)N(c2ccccc2)C(C)C)c1=O (stereo not drawn) [Compound 162],Morningglory plant response rating,morningglory; [1],6
same,Morningglory plant response rating,morningglory; [2],0
same,Morningglory plant response rating (0 to 10 scale),morningglory; [3],0
same,Morningglory plant response rating,morningglory; [4],0
same,Morningglory plant response rating,morningglory; [5],0
same,Morningglory plant response rating,morningglory; [6],6
same,"Plant response rating, Morningglory",morningglory; [7],10
same,Morningglory plant response rating,morningglory; [8],10
same,Soybean plant response rating,soybean; [1],4
same,Soybean plant response rating,soybean; [2],0
same,Soybean plant response rating (0 to 10 scale),soybean; [3],0
same,Soybean plant response rating,soybean; [4],0
same,Soybean plant response rating,soybean; [5],0
same,Soybean plant response rating,soybean; [6],3
same,"Plant response rating, Soybean",soybean; [7],4
same,Soybean plant response rating,soybean; [8],4
same,Corn plant response rating,corn; [1],0
same,Corn plant response rating,corn; [2],0
same,Corn plant response rating (0 to 10 scale),corn; [3],0
same,Corn plant response rating,corn; [4],0
same,Corn plant response rating,corn; [5],0
same,Corn plant response rating,corn; [6],0
same,"Plant response rating, Corn",corn; [7],0
same,Corn plant response rating,corn; [8],0
same,Crabgrass plant response rating,crabgrass; [1],2
same,Crabgrass plant response rating,crabgrass; [2],6
same,Crabgrass plant response rating (0 to 10 scale),crabgrass; [3],8
same,Crabgrass plant response rating,crabgrass; [4],9
same,Crabgrass plant response rating,crabgrass; [5],10
same,Crabgrass plant response rating,crabgrass; [6],0
same,"Plant response rating, Crabgrass",crabgrass; [7],6
same,Crabgrass plant response rating,crabgrass; [8],8
same,B. signalgrass plant response rating,surinam grass; [1],0
same,B. signalgrass plant response rating,surinam grass; [2],0
same,B. signalgrass plant response rating (0 to 10 scale),surinam grass; [3],2
same,B. signalgrass plant response rating,surinam grass; [4],3
same,B. signalgrass plant response rating,surinam grass; [5],7
same,B. signalgrass plant response rating,surinam grass; [6],0
same,"Plant response rating, B. signalgrass",surinam grass; [7],0
same,B. signalgrass plant response rating,surinam grass; [9],4
same,Nutsedge plant response rating,purple nutsedge; [1],0
same,Nutsedge plant response rating,purple nutsedge; [2],0
same,Nutsedge plant response rating (0 to 10 scale),purple nutsedge; [3],0
same,Nutsedge plant response rating,purple nutsedge; [4],0
same,Nutsedge plant response rating,purple nutsedge; [5],0
same,Nutsedge plant response rating,purple nutsedge; [6],0
same,"Plant response rating, Nutsedge",purple nutsedge; [7],0
same,Nutsedge plant response rating,purple nutsedge; [8],2
same,Cocklebur plant response rating,cocklebur; [1],0
same,Cocklebur plant response rating,cocklebur; [2],0
same,Cocklebur plant response rating (0 to 10 scale),cocklebur; [3],0
same,Cocklebur plant response rating,cocklebur; [4],0
same,Cocklebur plant response rating,cocklebur; [5],0
same,Cocklebur plant response rating,cocklebur; [6],0
same,"Plant response rating, Cocklebur",cocklebur; [7],0
same,Cocklebur plant response rating,cocklebur; [8],2
same,Blackgrass plant response rating,blackgrass; [1],0
same,Blackgrass plant response rating,blackgrass; [2],0
same,Blackgrass plant response rating (0 to 10 scale),blackgrass; [3],2
same,Blackgrass plant response rating,blackgrass; [4],2
same,Blackgrass plant response rating,blackgrass; [5],3
same,Blackgrass plant response rating,blackgrass; [6],0
same,"Plant response rating, Blackgrass",blackgrass; [7],0
same,Blackgrass plant response rating,blackgrass; [8],6
same,Rape plant response rating,rape; [1],0
same,Rape plant response rating,rape; [2],0
same,Rape plant response rating (0 to 10 scale),rape; [3],2
same,Rape plant response rating,rape; [4],4
same,Rape plant response rating,rape; [5],9
same,Rape plant response rating,rape; [6],0
same,"Plant response rating, Rape",rape; [7],0
same,Rape plant response rating,rape; [8],0
same,Giant foxtail plant response rating,giant foxtail; [1],2
same,Giant foxtail plant response rating,giant foxtail; [2],7
same,Giant foxtail plant response rating (0 to 10 scale),giant foxtail; [3],7
same,Giant foxtail plant response rating,giant foxtail; [4],9
same,Giant foxtail plant response rating,giant foxtail; [5],9
same,Giant foxtail plant response rating,giant foxtail; [6],0
same,"Plant response rating, Giant foxtail",giant foxtail; [7],2
same,Giant foxtail plant response rating,giant foxtail; [8],3
same,Wild oats plant response rating,wild oat; [2],0
same,Wild oats plant response rating (0 to 10 scale),wild oat; [10],0
same,Wild oats plant response rating,wild oat; [4],2
same,Wild oats plant response rating,wild oat; [5],5
same,"Plant response rating, Wild oats",wild oat; [7],0
same,Wild oats plant response rating,wild oat; [8],4
same,Redroot pigweed plant response rating,pigweed; [1],0
same,Redroot pigweed plant response rating,pigweed; [2],0
same,Redroot pigweed plant response rating (0 to 10 scale),pigweed; [3],0
same,Redroot pigweed plant response rating,pigweed; [4],0
same,Redroot pigweed plant response rating,pigweed; [5],7
same,Redroot pigweed plant response rating,pigweed; [6],0
same,"Plant response rating, Redroot pigweed",pigweed; [7],0
same,Redroot pigweed plant response rating,pigweed; [8],0
same,Velvetleaf plant response rating,velvetleaf; [2],0
same,Velvetleaf plant response rating (0 to 10 scale),velvetleaf; [10],0
same,Velvetleaf plant response rating,velvetleaf; [4],0
same,Velvetleaf plant response rating,velvetleaf; [5],0
same,"Plant response rating, Velvetleaf",velvetleaf; [7],4
same,Velvetleaf plant response rating,velvetleaf; [8],4
same,Sugarbeets plant response rating,sugar beet; [1],0
same,Sugarbeets plant response rating,sugar beet; [2],0
same,Sugarbeets plant response rating (0 to 10 scale),sugar beet; [3],0
same,Sugarbeets plant response rating,sugar beet; [4],0
same,Sugarbeets plant response rating,sugar beet; [5],0
same,Sugarbeets plant response rating,sugar beet; [6],0
same,"Plant response rating, Sugarbeets",sugar beet; [7],0
same,Sugarbeets plant response rating,sugar beet; [8],0
CC(C)N(C(=O)n1oc(=O)n([C@@H](C)c2ccccc2)c1=O)c1ccc(F)cc1 [Compound 167],Morningglory plant response rating,morningglory; [1],5
same,Morningglory plant response rating,morningglory; [2],0
same,Morningglory plant response rating (0 to 10 scale),morningglory; [3],0
same,Morningglory plant response rating,morningglory; [4],0
same,Morningglory plant response rating,morningglory; [5],0
same,Morningglory plant response rating,morningglory; [6],2
same,"Plant response rating, Morningglory",morningglory; [7],5
same,Morningglory plant response rating,morningglory; [8],8
same,Soybean plant response rating,soybean; [1],3
same,Soybean plant response rating,soybean; [2],0
same,Soybean plant response rating (0 to 10 scale),soybean; [3],0
same,Soybean plant response rating,soybean; [4],0
same,Soybean plant response rating,soybean; [5],0
same,Soybean plant response rating,soybean; [6],2
same,"Plant response rating, Soybean",soybean; [7],3
same,Soybean plant response rating,soybean; [8],5
same,Corn plant response rating,corn; [1],0
same,Corn plant response rating,corn; [2],0
same,Corn plant response rating (0 to 10 scale),corn; [3],0
same,Corn plant response rating,corn; [4],0
same,Corn plant response rating,corn; [5],0
same,Corn plant response rating,corn; [6],0
same,"Plant response rating, Corn",corn; [7],0
same,Corn plant response rating,corn; [8],0
same,Crabgrass plant response rating,crabgrass; [1],3
same,Crabgrass plant response rating,crabgrass; [2],7
same,Crabgrass plant response rating (0 to 10 scale),crabgrass; [3],8
same,Crabgrass plant response rating,crabgrass; [4],10
same,Crabgrass plant response rating,crabgrass; [5],10
same,Crabgrass plant response rating,crabgrass; [6],0
same,"Plant response rating, Crabgrass",crabgrass; [7],9
same,Crabgrass plant response rating,crabgrass; [8],9
same,B. signalgrass plant response rating,surinam grass; [1],0
same,B. signalgrass plant response rating,surinam grass; [2],2
same,B. signalgrass plant response rating (0 to 10 scale),surinam grass; [3],5
same,B. signalgrass plant response rating,surinam grass; [4],5
same,B. signalgrass plant response rating,surinam grass; [5],8
same,B. signalgrass plant response rating,surinam grass; [6],0
same,"Plant response rating, B. signalgrass",surinam grass; [7],0
same,B. signalgrass plant response rating,surinam grass; [9],0
same,Nutsedge plant response rating,purple nutsedge; [1],0
same,Nutsedge plant response rating,purple nutsedge; [2],0
same,Nutsedge plant response rating (0 to 10 scale),purple nutsedge; [3],0
same,Nutsedge plant response rating,purple nutsedge; [4],0
same,Nutsedge plant response rating,purple nutsedge; [5],0
same,Nutsedge plant response rating,purple nutsedge; [6],0
same,"Plant response rating, Nutsedge",purple nutsedge; [7],0
same,Nutsedge plant response rating,purple nutsedge; [8],0
same,Cocklebur plant response rating,cocklebur; [1],0
same,Cocklebur plant response rating,cocklebur; [2],0
same,Cocklebur plant response rating (0 to 10 scale),cocklebur; [3],0
same,Cocklebur plant response rating,cocklebur; [4],0
same,Cocklebur plant response rating,cocklebur; [5],0
same,Cocklebur plant response rating,cocklebur; [6],0
same,"Plant response rating, Cocklebur",cocklebur; [7],0
same,Cocklebur plant response rating,cocklebur; [8],2
same,Blackgrass plant response rating,blackgrass; [1],0
same,Blackgrass plant response rating,blackgrass; [2],0
same,Blackgrass plant response rating (0 to 10 scale),blackgrass; [3],0
same,Blackgrass plant response rating,blackgrass; [4],3
same,Blackgrass plant response rating,blackgrass; [5],3
same,Blackgrass plant response rating,blackgrass; [6],0
same,"Plant response rating, Blackgrass",blackgrass; [7],5
same,Blackgrass plant response rating,blackgrass; [8],5
same,Rape plant response rating,rape; [1],0
same,Rape plant response rating,rape; [2],0
same,Rape plant response rating (0 to 10 scale),rape; [3],0
same,Rape plant response rating,rape; [4],0
same,Rape plant response rating,rape; [5],5
same,Rape plant response rating,rape; [6],0
same,"Plant response rating, Rape",rape; [7],0
same,Rape plant response rating,rape; [8],0
same,Giant foxtail plant response rating,giant foxtail; [1],0
same,Giant foxtail plant response rating,giant foxtail; [2],8
same,Giant foxtail plant response rating (0 to 10 scale),giant foxtail; [3],9
same,Giant foxtail plant response rating,giant foxtail; [4],10
same,Giant foxtail plant response rating,giant foxtail; [5],10
same,Giant foxtail plant response rating,giant foxtail; [6],0
same,"Plant response rating, Giant foxtail",giant foxtail; [7],0
same,Giant foxtail plant response rating,giant foxtail; [8],0
same,Wild oats plant response rating,wild oat; [2],0
same,Wild oats plant response rating (0 to 10 scale),wild oat; [10],0
same,Wild oats plant response rating,wild oat; [4],3
same,Wild oats plant response rating,wild oat; [5],6
same,"Plant response rating, Wild oats",wild oat; [7],0
same,Wild oats plant response rating,wild oat; [8],0
same,Redroot pigweed plant response rating,pigweed; [1],0
same,Redroot pigweed plant response rating,pigweed; [2],0
same,Redroot pigweed plant response rating (0 to 10 scale),pigweed; [3],6
same,Redroot pigweed plant response rating,pigweed; [4],8
same,Redroot pigweed plant response rating,pigweed; [5],8
same,Redroot pigweed plant response rating,pigweed; [6],0
same,"Plant response rating, Redroot pigweed",pigweed; [7],3
same,Redroot pigweed plant response rating,pigweed; [8],7
same,Velvetleaf plant response rating,velvetleaf; [2],0
same,Velvetleaf plant response rating (0 to 10 scale),velvetleaf; [10],0
same,Velvetleaf plant response rating,velvetleaf; [4],0
same,Velvetleaf plant response rating,velvetleaf; [5],3
same,"Plant response rating, Velvetleaf",velvetleaf; [7],0
same,Velvetleaf plant response rating,velvetleaf; [8],2
same,Sugarbeets plant response rating,sugar beet; [1],0
same,Sugarbeets plant response rating,sugar beet; [2],0
same,Sugarbeets plant response rating (0 to 10 scale),sugar beet; [3],2
same,Sugarbeets plant response rating,sugar beet; [4],5
same,Sugarbeets plant response rating,sugar beet; [5],5
same,Sugarbeets plant response rating,sugar beet; [6],0
same,"Plant response rating, Sugarbeets",sugar beet; [7],0
same,Sugarbeets plant response rating,sugar beet; [8],0
